# Experimental data from patent US6133279A, “Therapeutic agents for renal diseases and organ preservatives” (Chugai Seiyaku Kabushiki Kaisha, priority 1996, dated 2000).
# Test system: puromycin-induced nephrosis model
# Test: Puromycin-induced nephrosis (2), postadministration (in vivo)
# Set-up: species or system rat (male SD rats)
# Conditions: 200 mg/kg oral once a day from the day following puromycin; control 0.82 ± 0.07
# Experimental: Effect of the compounds of the present invention on an in vivo renal disease was studied using a puromycin-induced nephrosis model. A puromycin-induced renal failure model was prepared from rats in groups of 5-8 each (6 week-old male SD rats) fed with high-fat diet. High-fat diet feeding was started by free access to high-fat diet (cholesterol level 1.25%) from 7 days before puromycin treatment. Puromycin (puromycin aminonucleoside, SIGMA Chemical Co.) treatment was performed by intraperitoneal administration at a dose of 100 mg/kg. Test compounds were administered as a solution in soybean oil via oral route (4 ml/kg). Control group was orally administered soybean oil alone. Probucol and a water-soluble α-tocopherol analogue, Trolox, were used as reference control compounds. The compounds were orally administered once a day from the following day of the puromycin treatment. Renal functions were determined by using urine and blood samples. The volume of urine, urea nitrogen level and creatinine levels of serum and urine were evaluated to calculate creatinine clearance as an indication of renal functions.
row,SMILES,Creatinine [mg/dL]
1,"CC(C)(C)c1cc2c(c(C(C)(C)C)c1O)CC(Cc1ccccc1)(Cc1ccccc1)O2 [Example 16, 4,6-Di-t-butyl-2,2-dibenzyl-5-hydroxy-2,3-dihydrobenzofuran]",0.73 ± 0.06
2,"CC(C)(C)c1cc2c(c(C(C)(C)C)c1O)CC1(CCCCCC1)O2 [Example 20, 4,6-Di-t-butyl-5-hydroxy-2,3-dihydrobenzofuran-2-spiro-1'-cycloheptane]",0.61 ± 0.08
3,"CC(C)(Sc1cc(C(C)(C)C)c(O)c(C(C)(C)C)c1)Sc1cc(C(C)(C)C)c(O)c(C(C)(C)C)c1 [Probucol, probucol, reference compound]",0.98 ± 0.13
4,"Cc1c(C)c2c(c(C)c1O)CCC(C)(C(=O)O)O2 (stereo not shown) [Trolox, reference compound]",0.96 ± 0.14

# Same assay, conditions: 200 mg/kg oral once a day from the day following puromycin; control 30.74 ± 10.95
row,SMILES,Urine nitrogen [mg/dL]
1,"CC(C)(C)c1cc2c(c(C(C)(C)C)c1O)CC(Cc1ccccc1)(Cc1ccccc1)O2 [Example 16, 4,6-Di-t-butyl-2,2-dibenzyl-5-hydroxy-2,3-dihydrobenzofuran]",31.82 ± 10.84
2,"CC(C)(C)c1cc2c(c(C(C)(C)C)c1O)CC1(CCCCCC1)O2 [Example 20, 4,6-Di-t-butyl-5-hydroxy-2,3-dihydrobenzofuran-2-spiro-1'-cycloheptane]",25.40 ± 10.28
3,"CC(C)(Sc1cc(C(C)(C)C)c(O)c(C(C)(C)C)c1)Sc1cc(C(C)(C)C)c(O)c(C(C)(C)C)c1 [Probucol, probucol, reference compound]",37.53 ± 7.53
4,"Cc1c(C)c2c(c(C)c1O)CCC(C)(C(=O)O)O2 (stereo not shown) [Trolox, reference compound]",31.91 ± 11.93

# Same assay, conditions: 200 mg/kg oral once a day from the day following puromycin; control 824 ± 108
row,SMILES,Creatinine clearance [mL/day]
1,"CC(C)(C)c1cc2c(c(C(C)(C)C)c1O)CC(Cc1ccccc1)(Cc1ccccc1)O2 [Example 16, 4,6-Di-t-butyl-2,2-dibenzyl-5-hydroxy-2,3-dihydrobenzofuran]",925
2,"CC(C)(C)c1cc2c(c(C(C)(C)C)c1O)CC1(CCCCCC1)O2 [Example 20, 4,6-Di-t-butyl-5-hydroxy-2,3-dihydrobenzofuran-2-spiro-1'-cycloheptane]",1144 ± 172
3,"CC(C)(Sc1cc(C(C)(C)C)c(O)c(C(C)(C)C)c1)Sc1cc(C(C)(C)C)c(O)c(C(C)(C)C)c1 [Probucol, probucol, reference compound]",838 ± 187
4,"Cc1c(C)c2c(c(C)c1O)CCC(C)(C(=O)O)O2 (stereo not shown) [Trolox, reference compound]",660

# Test system: porcine kidney-derived LLC-PK1 cells
# Test: Protective effect against oxidized LDL-induced injury of porcine kidney-derived LLC-PK1 cells (1)
# Type: cell-based
# Conditions: Sus scrofa, LLC-PK1, 6 h, 0.1 μM; compound added 16 hours before adding oxidized LDL; mean ± standard deviation; read-out: Cytoprotection rate (%)
# Experimental: For the purpose of evaluating in vitro cytoprotective effect of the compounds of the present invention, a cytoprotective study was performed using porcine kidney-derived LLC-PK1 cells (ATCC-CRL-13921) injured by oxidized low-density lipoprotein (oxidized LDL).
# Oxidized LDL was prepared by incubating 1 mg/ml of rabbit LDL in PBS (-) in the presence of 10 μM CuSO4 at 37° C. for 24 hours. Cell culture was carried out by plating 1.25×10^4 cells/250 μl/well on a 48-well plate containing M199 medium containing 3% FBS. Test compounds were dissolved or suspended in ethanol and added to the wells in an amount of 1.25 μl/well to a concentration of 0.1, 1 or 10 μM in each well. After 16 hours or immediately after the addition of the compounds, oxidized LDL was added to the wells. Probucol, α-tocopherol and Trolox which is a water-soluble analogue of α-tocopherol were used as reference control compounds. Oxidized LDL was diluted twice with saline and then added to the wells in an amount of 62.5 μl/well to a concentration of 100 μg/ml and the cells were cultured for 6 hours after addition of the oxidized LDL. Then, 162.5 μl/well of the culture medium were collected and measured for the lactate dehydrogenase (LDH) level (LD-L: SIGNA DIAGNOSTICS) having leaked into the medium.
# The magnitude of cytoprotective effect was expressed as the cytoprotection rate which was determined by calculating the data assuming that the magnitude in wells containing oxidized LDL is 0% and that the magnitude in wells containing saline is 100%.
row,SMILES,inhibition at 0.1 µM [%]
1,"CC(C)(C)c1cc2c(c(C(C)(C)C)c1O)CC(Cc1ccccc1)(Cc1ccccc1)O2 [Example 16, 4,6-Di-t-butyl-2,2-dibenzyl-5-hydroxy-2,3-dihydrobenzofuran]",12 ± 7.5
2,"CC(C)(C)c1cc2c(c(C(C)(C)C)c1O)CC1(CCCCCC1)O2 [Example 20, 4,6-Di-t-butyl-5-hydroxy-2,3-dihydrobenzofuran-2-spiro-1'-cycloheptane]",-11.3 ± 8.5
3,"CC(C)(Sc1cc(C(C)(C)C)c(O)c(C(C)(C)C)c1)Sc1cc(C(C)(C)C)c(O)c(C(C)(C)C)c1 [Probucol, probucol, reference compound]",22.5 ± 15.1
4,"Cc1c(C)c2c(c(C)c1O)CCC(C)(C(=O)O)O2 (stereo not shown) [Trolox, reference compound]",0.4 ± 1.3
5,"Cc1c(C)c2c(c(C)c1O)CCC(C)(CCCC(C)CCCC(C)CCCC(C)C)O2 (stereo not drawn) [α-tocopherol, reference compound]",7.2 ± 2.2

# Same assay, conditions: Sus scrofa, LLC-PK1, 6 h, 0.1 μM; compound added immediately before adding oxidized LDL; mean ± standard deviation; read-out: Cytoprotection rate (%)
row,SMILES,inhibition at 0.1 µM [%]
1,"CC(C)(C)c1cc2c(c(C(C)(C)C)c1O)CC(Cc1ccccc1)(Cc1ccccc1)O2 [Example 16, 4,6-Di-t-butyl-2,2-dibenzyl-5-hydroxy-2,3-dihydrobenzofuran]",-36.7 ± 6.6
2,"CC(C)(C)c1cc2c(c(C(C)(C)C)c1O)CC1(CCCCCC1)O2 [Example 20, 4,6-Di-t-butyl-5-hydroxy-2,3-dihydrobenzofuran-2-spiro-1'-cycloheptane]",-15.8 ± 8
3,"CC(C)(Sc1cc(C(C)(C)C)c(O)c(C(C)(C)C)c1)Sc1cc(C(C)(C)C)c(O)c(C(C)(C)C)c1 [Probucol, probucol, reference compound]",-1.8 ± 9.7
4,"Cc1c(C)c2c(c(C)c1O)CCC(C)(C(=O)O)O2 (stereo not shown) [Trolox, reference compound]",0
5,"Cc1c(C)c2c(c(C)c1O)CCC(C)(CCCC(C)CCCC(C)CCCC(C)C)O2 (stereo not drawn) [α-tocopherol, reference compound]",-2.8

# Same assay, conditions: Sus scrofa, LLC-PK1, 6 h, 1 μM; compound added 16 hours before adding oxidized LDL; mean ± standard deviation; read-out: Cytoprotection rate (%)
row,SMILES,inhibition at 1 µM [%]
1,"CC(C)(C)c1cc2c(c(C(C)(C)C)c1O)CC(Cc1ccccc1)(Cc1ccccc1)O2 [Example 16, 4,6-Di-t-butyl-2,2-dibenzyl-5-hydroxy-2,3-dihydrobenzofuran]",94.5 ± 4.9
2,"CC(C)(C)c1cc2c(c(C(C)(C)C)c1O)CC1(CCCCCC1)O2 [Example 20, 4,6-Di-t-butyl-5-hydroxy-2,3-dihydrobenzofuran-2-spiro-1'-cycloheptane]",98.6 ± 1.2
3,"CC(C)(Sc1cc(C(C)(C)C)c(O)c(C(C)(C)C)c1)Sc1cc(C(C)(C)C)c(O)c(C(C)(C)C)c1 [Probucol, probucol, reference compound]",36.4 ± 13.3
4,"Cc1c(C)c2c(c(C)c1O)CCC(C)(C(=O)O)O2 (stereo not shown) [Trolox, reference compound]",6.4 ± 10.6
5,"Cc1c(C)c2c(c(C)c1O)CCC(C)(CCCC(C)CCCC(C)CCCC(C)C)O2 (stereo not drawn) [α-tocopherol, reference compound]",72.1 ± 13.8

# Same assay, conditions: Sus scrofa, LLC-PK1, 6 h, 1 μM; compound added immediately before adding oxidized LDL; mean ± standard deviation; read-out: Cytoprotection rate (%)
row,SMILES,inhibition at 1 µM [%]
1,"CC(C)(C)c1cc2c(c(C(C)(C)C)c1O)CC(Cc1ccccc1)(Cc1ccccc1)O2 [Example 16, 4,6-Di-t-butyl-2,2-dibenzyl-5-hydroxy-2,3-dihydrobenzofuran]",74.4
2,"CC(C)(C)c1cc2c(c(C(C)(C)C)c1O)CC1(CCCCCC1)O2 [Example 20, 4,6-Di-t-butyl-5-hydroxy-2,3-dihydrobenzofuran-2-spiro-1'-cycloheptane]",99.9
3,"CC(C)(Sc1cc(C(C)(C)C)c(O)c(C(C)(C)C)c1)Sc1cc(C(C)(C)C)c(O)c(C(C)(C)C)c1 [Probucol, probucol, reference compound]",0.3
4,"Cc1c(C)c2c(c(C)c1O)CCC(C)(C(=O)O)O2 (stereo not shown) [Trolox, reference compound]",-7.1
5,"Cc1c(C)c2c(c(C)c1O)CCC(C)(CCCC(C)CCCC(C)CCCC(C)C)O2 (stereo not drawn) [α-tocopherol, reference compound]",8.2 ± 5.7

# Same assay, conditions: Sus scrofa, LLC-PK1, 6 h, 10 μM; compound added 16 hours before adding oxidized LDL; mean ± standard deviation; read-out: Cytoprotection rate (%)
row,SMILES,inhibition at 10 µM [%]
1,"CC(C)(C)c1cc2c(c(C(C)(C)C)c1O)CC(Cc1ccccc1)(Cc1ccccc1)O2 [Example 16, 4,6-Di-t-butyl-2,2-dibenzyl-5-hydroxy-2,3-dihydrobenzofuran]",98.3 ± 0.3
2,"CC(C)(C)c1cc2c(c(C(C)(C)C)c1O)CC1(CCCCCC1)O2 [Example 20, 4,6-Di-t-butyl-5-hydroxy-2,3-dihydrobenzofuran-2-spiro-1'-cycloheptane]",106 ± 1.2
3,"CC(C)(Sc1cc(C(C)(C)C)c(O)c(C(C)(C)C)c1)Sc1cc(C(C)(C)C)c(O)c(C(C)(C)C)c1 [Probucol, probucol, reference compound]",99.7 ± 1.1
4,"Cc1c(C)c2c(c(C)c1O)CCC(C)(C(=O)O)O2 (stereo not shown) [Trolox, reference compound]",17.5 ± 16.9
5,"Cc1c(C)c2c(c(C)c1O)CCC(C)(CCCC(C)CCCC(C)CCCC(C)C)O2 (stereo not drawn) [α-tocopherol, reference compound]",98.9 ± 1

# Same assay, conditions: Sus scrofa, LLC-PK1, 6 h, 10 μM; compound added immediately before adding oxidized LDL; mean ± standard deviation; read-out: Cytoprotection rate (%)
row,SMILES,inhibition at 10 µM [%]
1,"CC(C)(C)c1cc2c(c(C(C)(C)C)c1O)CC(Cc1ccccc1)(Cc1ccccc1)O2 [Example 16, 4,6-Di-t-butyl-2,2-dibenzyl-5-hydroxy-2,3-dihydrobenzofuran]",99.6 ± 0.1
2,"CC(C)(C)c1cc2c(c(C(C)(C)C)c1O)CC1(CCCCCC1)O2 [Example 20, 4,6-Di-t-butyl-5-hydroxy-2,3-dihydrobenzofuran-2-spiro-1'-cycloheptane]",102 ± 4.7
3,"CC(C)(Sc1cc(C(C)(C)C)c(O)c(C(C)(C)C)c1)Sc1cc(C(C)(C)C)c(O)c(C(C)(C)C)c1 [Probucol, probucol, reference compound]",17 ± 7.8
4,"Cc1c(C)c2c(c(C)c1O)CCC(C)(C(=O)O)O2 (stereo not shown) [Trolox, reference compound]",-4.9 ± 6.3
5,"Cc1c(C)c2c(c(C)c1O)CCC(C)(CCCC(C)CCCC(C)CCCC(C)C)O2 (stereo not drawn) [α-tocopherol, reference compound]",2.7 ± 2.3

# Test system: not given
# Test: not given
# Conditions: literature; cited from earlier work
row,SMILES,effect on renal disease models / renal functions (in words)
1,"Cc1c(C)c2c(c(C)c1O)CCC(C)(CCCC(C)CCCC(C)CCCC(C)C)O2 (stereo not drawn) [α-tocopherol, reference compound]",its effect is not sufficient
